Test results published in US20230265151A1, “GIP/GLP1 CO-AGONIST COMPOUNDS” (priority 2020, published 2023).
Like-named read-outs stand apart in the source and are kept apart here.

How the values were obtained:
[1] = biological target: hGLP-1R (Homo sapiens, UniProt P43220); test: Functional cAMP formation (HTRF) in HEK-293 clonal cells expressing hGLP-1R, 0.1% bovine casein, without or with 1.0% human serum albumin; type: cell-based; set-up: expressed in transfected cells; conditions: for Emax: read-out: hGLP-1R Emax, % ± SEM
Summary of the method: (§1)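 Readings of the HTRF 665/620 nm ratio, which falls as cAMP rises, were converted to nM cAMP using a standard curve after 30 min peptide exposure at 37° C.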

[2] = biological target: T1, hGCGR (Homo sapiens, UniProt P47871); test: Functional cAMP formation (HTRF) in HEK-293 clonal cells expressing hGCGR, 0.1% bovine casein, without or with 1.0% human serum albumin; type: cell-based
T1 construct: expressed in transfected cells
Summary of the method: as §1

[3] = biological target: T2, human Gcg receptor (hGcgR) (Homo sapiens, UniProt P47871); test: [125I]-Glucagon binding, SPA with membranes of HEK293 cells expressing hGcgR
T2 construct: expressed in transfected cells; crude membranes

[4] = biological target: T3, human GIP receptor (hGIPR) (Homo sapiens, UniProt P48546); test: [125I]-GIP binding, SPA with membranes of CHO cells expressing hGIPR
T3 construct: expressed in transfected cells; crude membranes
T3 sequence (P48546 22-466): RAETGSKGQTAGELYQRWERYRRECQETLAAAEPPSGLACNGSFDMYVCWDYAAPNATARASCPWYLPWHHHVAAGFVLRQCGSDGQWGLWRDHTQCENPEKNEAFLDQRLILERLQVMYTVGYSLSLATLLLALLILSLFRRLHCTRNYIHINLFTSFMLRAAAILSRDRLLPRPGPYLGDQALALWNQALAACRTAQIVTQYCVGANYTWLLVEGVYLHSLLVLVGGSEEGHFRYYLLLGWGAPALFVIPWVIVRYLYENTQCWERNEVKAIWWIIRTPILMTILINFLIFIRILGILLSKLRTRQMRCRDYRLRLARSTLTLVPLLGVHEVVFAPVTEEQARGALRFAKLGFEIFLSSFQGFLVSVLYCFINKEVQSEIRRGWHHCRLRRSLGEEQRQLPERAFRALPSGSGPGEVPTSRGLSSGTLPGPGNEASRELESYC

[5] = biological target: T4, hGIPR (Homo sapiens, UniProt P48546); test: Functional cAMP formation (HTRF) in HEK-293 clonal cells expressing hGIPR, 0.1% bovine casein, without or with 1.0% human serum albumin; type: cell-based; conditions: for Emax: read-out: hGIPR Emax, % ± SEM
T4 construct: expressed in transfected cells
T4 sequence (P48546 22-466): T3 sequence (P48546 22-466)
Summary of the method: as §1

[6] = 0.1% bovine casein and 1.0% human serum albumin, 37° C., geometric mean, read-out: hGLP-1R EC50, nM (SEM, n)
[7] = 0.1% bovine casein and 1.0% human serum albumin, 37° C., geometric mean, read-out: hGCGR EC50, nM (SEM, n)
[8] = cAMP, incubated at 37° C., 0.1% bovine casein (no human serum albumin), geometric mean, read-out: hGCGR EC50, nM (SEM, n)
[9] = human GcgR, geometric mean (SEM, n), read-out: Binding Affinity Ki, nM (SEM, n) hGCGR
[10] = human GIPR, geometric mean (SEM, n), read-out: Binding Affinity Ki, nM (SEM, n) hGIPR
[11] = HEK293, 0.1% bovine casein and 1.0% human serum albumin, 37° C., percent of maximal response to GIP(1-42)NH2
[12] = HEK293, percent of maximal response to GIP(1-42)NH2, 37° C., 0.1% bovine casein, arithmetic mean
[13] = cAMP, incubated at 37° C., 0.1% bovine casein (no human serum albumin), geometric mean, read-out: hGIPR EC50, nM (SEM, n)

Sequence of hGLP-1R (P43220 24-463): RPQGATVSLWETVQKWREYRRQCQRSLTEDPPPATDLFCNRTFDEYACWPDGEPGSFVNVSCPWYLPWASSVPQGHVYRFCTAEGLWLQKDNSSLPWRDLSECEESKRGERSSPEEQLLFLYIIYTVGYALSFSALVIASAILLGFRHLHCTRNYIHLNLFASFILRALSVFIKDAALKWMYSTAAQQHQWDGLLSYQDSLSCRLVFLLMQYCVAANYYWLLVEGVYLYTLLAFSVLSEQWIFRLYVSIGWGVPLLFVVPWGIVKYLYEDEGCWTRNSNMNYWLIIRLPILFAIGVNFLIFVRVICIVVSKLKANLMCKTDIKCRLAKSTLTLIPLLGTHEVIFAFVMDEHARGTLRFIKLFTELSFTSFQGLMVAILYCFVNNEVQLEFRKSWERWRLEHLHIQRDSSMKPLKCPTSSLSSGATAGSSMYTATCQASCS
T2 sequence (P47871 26-477): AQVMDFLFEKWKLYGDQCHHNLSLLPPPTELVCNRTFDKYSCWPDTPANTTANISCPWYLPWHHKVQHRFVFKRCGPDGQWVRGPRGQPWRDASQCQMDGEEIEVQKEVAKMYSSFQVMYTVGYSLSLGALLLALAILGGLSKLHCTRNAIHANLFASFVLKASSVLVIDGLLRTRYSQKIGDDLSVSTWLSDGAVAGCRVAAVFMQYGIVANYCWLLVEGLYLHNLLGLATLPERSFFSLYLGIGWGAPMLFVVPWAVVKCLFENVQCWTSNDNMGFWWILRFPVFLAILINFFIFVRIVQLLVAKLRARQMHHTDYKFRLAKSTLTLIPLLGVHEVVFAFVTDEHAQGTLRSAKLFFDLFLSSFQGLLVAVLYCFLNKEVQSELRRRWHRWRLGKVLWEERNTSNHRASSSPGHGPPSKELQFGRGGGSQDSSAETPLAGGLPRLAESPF
T1 sequence (P47871 26-477): as above

CC[C@H](C)[C@H](NC(=O)[C@H](CC(C)C)NC(=O)[C@](C)(Cc1ccc(O)cc1)NC(=O)[C@@H](CCC(=O)O)NC(=O)[C@@H](NC(=O)[C@H](Cc1ccccc1)NC(=O)[C@H](CCC(=O)O)NC(=O)C(C)(C)NC(=O)[C@H](CCC(N)=O)NC(=O)[C@H](C)NC(=O)[C@H](CCCCNC(=O)[C@@H](N)CCCCNC(=O)COCCOCCNC(=O)COCCOCCNC(=O)CC[C@H](NC(=O)CCCCCCCCCCCCC(=O)O)C(=O)O)NC(=O)[C@H](CCCN)NC(=O)[C@H](CC(=O)O)NC(=O)[C@H](CC(C)C)NC(=O)[C@](C)(CC(C)C)NC(=O)[C@@H](NC(=O)[C@H](CO)NC(=O)[C@H](Cc1ccncc1)NC(=O)[C@H](CC(=O)O)NC(=O)[C@H](CO)NC(=O)[C@@H](NC(=O)[C@](C)(Cc1ccccc1F)NC(=O)[C@@H](NC(=O)CNC(=O)[C@H](CCC(=O)O)NC(=O)C(C)(C)NC(=O)[C@@H](N)Cc1ccc(O)cc1)[C@@H](C)O)[C@@H](C)O)[C@@H](C)CC)[C@@H](C)CC)C(=O)N[C@@H](CCC(=O)O)C(=O)NCC(=O)NCC(=O)N[C@@H](CCCCNC(=O)[C@@H](N)CCCCNC(=O)COCCOCCNC(=O)COCCOCCNC(=O)CC[C@H](NC(=O)CCCCCCCCCCCCC(=O)O)C(=O)O)C(=O)N[C@@H](CO)C(=O)N[C@@H](CO)C(=O)NCC(=O)N[C@@H](C)C(=O)N1CCC[C@H]1C(=O)N1CCC[C@H]1C(=O)N1CCC[C@H]1C(=O)N[C@@H](CO)C(N)=O [Example 37]
EC50 [1, 6]: 17 nM | EC50 [2, 7]: > 9950 nM | EC50 [2, 8]: > 9950 nM | Ki [3, 9]: > 957 nM | Ki [4, 10]: 0.171 nM | EC50 ([5]; 0.1% bovine casein and 1.0% human serum albumin, 37° C., geometric mean, read-out: hGIPR EC50, nM (SEM, n)): 0.306 nM | Emax [5, 11]: 88.5 ± 0.188% | Emax [5, 12]: 91.2 ± 3.67% | EC50 [5, 13]: 0.0211 nM

CC[C@H](C)[C@H](NC(=O)[C@H](CC(C)C)NC(=O)[C@](C)(Cc1ccc(O)cc1)NC(=O)[C@H](CCCCNC(=O)COCCOCCNC(=O)COCCOCCNC(=O)CC[C@H](NC(=O)CCCCCCCCCCCCC(=O)O)C(=O)O)NC(=O)[C@@H](NC(=O)[C@H](Cc1ccccc1)NC(=O)[C@H](CCC(=O)O)NC(=O)C(C)(C)NC(=O)[C@H](CCC(N)=O)NC(=O)[C@H](C)NC(=O)[C@H](CCC(N)=O)NC(=O)[C@H](CCCN)NC(=O)[C@H](CC(=O)O)NC(=O)[C@H](CC(C)C)NC(=O)[C@](C)(CC(C)C)NC(=O)[C@@H](NC(=O)C(C)(C)NC(=O)[C@H](Cc1ccncc1)NC(=O)[C@H](CC(=O)O)NC(=O)[C@H](CO)NC(=O)[C@@H](NC(=O)[C@](C)(Cc1ccccc1F)NC(=O)[C@@H](NC(=O)CNC(=O)[C@H](CCC(=O)O)NC(=O)C(C)(C)NC(=O)[C@@H](N)Cc1ccc(O)cc1)[C@@H](C)O)[C@@H](C)O)[C@@H](C)CC)[C@@H](C)CC)C(=O)N[C@@H](CCCCNC(=O)COCCOCCNC(=O)COCCOCCNC(=O)CC[C@H](NC(=O)CCCCCCCCCCCCC(=O)O)C(=O)O)C(=O)NCC(=O)NCC(=O)N1CCC[C@H]1C(=O)N[C@@H](CO)C(=O)N[C@@H](CO)C(=O)NCC(=O)N[C@@H](C)C(=O)N1CCC[C@H]1C(=O)N1CCC[C@H]1C(=O)N1CCC[C@H]1C(=O)N[C@@H](CO)C(N)=O [Example 411]
Emax ([1]; HEK293, cAMP, 37° C., 0.1% bovine casein, percent of maximal response to GLP-1(7-36)NH2, arithmetic mean): 110% | EC50 ([1]; cAMP, 37° C., 0.1% bovine casein (no human serum albumin), geometric mean, read-out: hGLP-1R EC50, nM (SEM, n)): 0.167 nM | EC50 ([1]; cAMP, 37° C., 0.1% bovine casein and 1.0% human serum albumin, geometric mean (SEM, n), read-out: hGLP-1R EC50, nM (SEM, n)): 11.4 nM | EC50 ([2]; cAMP, 37° C., 0.1% bovine casein (no human serum albumin), geometric mean, read-out: hGCGR EC50, nM (SEM, n)): > 9950 nM | EC50 ([2]; cAMP, 37° C., 0.1% bovine casein and 1.0% human serum albumin, geometric mean (SEM, n), read-out: hGCGR EC50, nM (SEM, n)): > 9950 nM | Ki [3, 9]: > 957 nM | Ki [4, 10]: 0.0375 nM | Emax ([5]; HEK293, cAMP, 37° C., 0.1% bovine casein and 1.0% human serum albumin, percent of maximal response to GIP(1-42)NH2): 84.6% | EC50 ([5]; cAMP, 37° C., 0.1% bovine casein (no human serum albumin), geometric mean, read-out: hGIPR EC50, nM (SEM, n)): 0.0102 nM | EC50 ([5]; cAMP, 37° C., 0.1% bovine casein and 1.0% human serum albumin, geometric mean (SEM, n), read-out: hGIPR EC50, nM (SEM, n)): 1.09 nM

CC[C@H](C)[C@H](NC(=O)[C@H](CC(C)C)NC(=O)[C@](C)(Cc1ccc(O)cc1)NC(=O)[C@@H](CCC(=O)O)NC(=O)[C@@H](NC(=O)[C@H](Cc1ccccc1)NC(=O)[C@H](CCC(=O)O)NC(=O)C(C)(C)NC(=O)[C@H](CCC(N)=O)NC(=O)[C@H](C)NC(=O)[C@H](CCCCNC(=O)COCCOCCNC(=O)CC[C@H](NC(=O)CCCCCCCCCOc1ccc(C(=O)O)cc1)C(=O)O)NC(=O)[C@H](CCCN)NC(=O)[C@H](CC(=O)O)NC(=O)[C@H](CC(C)C)NC(=O)[C@](C)(CC(C)C)NC(=O)[C@@H](NC(=O)[C@H](CO)NC(=O)[C@H](Cc1ccncc1)NC(=O)[C@H](CC(=O)O)NC(=O)[C@H](CO)NC(=O)[C@@H](NC(=O)[C@](C)(Cc1ccccc1F)NC(=O)[C@@H](NC(=O)CNC(=O)[C@H](CCC(=O)O)NC(=O)C(C)(C)NC(=O)[C@@H](N)Cc1ccc(O)cc1)[C@@H](C)O)[C@@H](C)O)[C@@H](C)CC)[C@@H](C)CC)C(=O)N[C@@H](CCC(=O)O)C(=O)NCC(=O)NCC(=O)N[C@@H](CCCCNC(=O)COCCOCCNC(=O)CC[C@H](NC(=O)CCCCCCCCCOc1ccc(C(=O)O)cc1)C(=O)O)C(=O)N[C@@H](CO)C(=O)N[C@@H](CO)C(=O)NCC(=O)N[C@@H](C)C(=O)N1CCC[C@H]1C(=O)N1CCC[C@H]1C(=O)N1CCC[C@H]1C(=O)N[C@@H](CO)C(N)=O [Example 12]
EC50 ([1]; hGLP-1R EC50, nM (SEM, n), 0.1% bovine casein and 1.0% human serum albumin, 37° C., geometric mean): 20.3 nM | EC50 ([2]; hGCGR EC50, nM (SEM, n), 0.1% bovine casein and 1.0% human serum albumin, 37° C., geometric mean): > 9950 nM | EC50 ([2]; hGCGR EC50, nM (SEM, n), cAMP, incubated at 37° C., 0.1% bovine casein (no human serum albumin), geometric mean): > 9950 nM | Ki [3]: 213 nM | Ki [4]: 0.0575 nM | EC50 ([5]; hGIPR EC50, nM (SEM, n), 0.1% bovine casein and 1.0% human serum albumin, 37° C., geometric mean): 0.745 nM | EC50 ([5]; hGIPR EC50, nM (SEM, n), cAMP, incubated at 37° C., 0.1% bovine casein (no human serum albumin), geometric mean): 0.0127 nM

CC[C@H](C)[C@H](NC(=O)[C@H](CC(C)C)NC(=O)[C@](C)(Cc1ccc(O)cc1)NC(=O)[C@@H](CCC(=O)O)NC(=O)[C@@H](NC(=O)[C@H](Cc1cccc(F)c1)NC(=O)[C@H](CCC(=O)O)NC(=O)C(C)(C)NC(=O)[C@H](CCC(N)=O)NC(=O)[C@H](C)NC(=O)[C@H](CCCCNC(=O)COCCOCCNC(=O)COCCOCCNC(=O)CC[C@H](NC(=O)CCCCCCCCCCCCC(=O)O)C(=O)O)NC(=O)[C@H](CCCN)NC(=O)[C@H](CC(=O)O)NC(=O)[C@H](CC(C)C)NC(=O)[C@](C)(CC(C)C)NC(=O)[C@@H](NC(=O)[C@H](CO)NC(=O)[C@H](Cc1ccncc1)NC(=O)[C@H](CC(=O)O)NC(=O)[C@H](CO)NC(=O)[C@@H](NC(=O)[C@](C)(Cc1ccccc1F)NC(=O)[C@@H](NC(=O)CNC(=O)[C@H](CCC(=O)O)NC(=O)C(C)(C)NC(=O)[C@@H](N)Cc1ccc(O)cc1)[C@@H](C)O)[C@@H](C)O)[C@@H](C)CC)[C@@H](C)CC)C(=O)N[C@@H](CCC(=O)O)C(=O)NCC(=O)NCC(=O)N[C@@H](CCCCNC(=O)COCCOCCNC(=O)COCCOCCNC(=O)CC[C@H](NC(=O)CCCCCCCCCCCCC(=O)O)C(=O)O)C(=O)N[C@@H](CO)C(=O)N[C@@H](CO)C(=O)NCC(=O)N[C@@H](C)C(=O)N1CCC[C@H]1C(=O)N1CCC[C@H]1C(=O)N1CCC[C@H]1C(=O)N[C@@H](CO)C(N)=O [Example 64]
EC50 [1, 6]: 27 nM | Emax ([1]; HEK293, 0.1% bovine casein and 1.0% human serum albumin, 37° C., percent of maximal response to GLP-1(7-36)NH2): 87.8 ± 0.301% | Emax ([1]; HEK293, percent of maximal response to GLP-1(7-36)NH2, 37° C., 0.1% bovine casein, arithmetic mean): 97.3 ± 4.13% | EC50 ([1]; cAMP, incubated at 37° C., 0.1% bovine casein (no human serum albumin), geometric mean, read-out: hGLP-1R EC50, nM (SEM, n)): 0.557 nM | EC50 [2, 7]: > 9950 nM | EC50 [2, 8]: > 9950 nM | Ki [3, 9]: > 4780 nM | Ki [4, 10]: 0.161 nM | Emax [5, 11]: 90.5 ± 3.44% | Emax [5, 12]: 92.9 ± 3.06% | EC50 [5, 13]: 0.0158 nM
